# How the values were obtained:
# [1] = test system: coculture of keratinocytes and melanocytes; experiment: Cytotoxicity on keratinocyte/melanocyte coculture, estimated by incorporation of leucine; assay type: cell-based
# [2] = test system: coculture of keratinocytes and melanocytes; experiment: Inhibitory activity on melanin synthesis (constitutive melanogenesis), ratio of thiouracil to leucine incorporation; assay type: cell-based; conditions: concentration for which 50% of the synthesis of the melanin is inhibited; thiouracil/leucine incorporation ratio relative to 100% for the control
# Procedure: This test is carried out on a coculture of keratinocytes and melanocytes.
# For the test compound, the following were determined: • the cytotoxicity, by estimating the incorporation of leucine, • the inhibitory activity on melanin synthesis, by estimating the ratio of the incorporation of thiouracil to the incorporation of leucine, relative to 100% for the control (the control corresponds to the test performed without test compound). The IC50 (concentration for which 50% of the synthesis of the melanin is inhibited) values were determined.
# The test was also carried out with arbutin and kojic acid, which are known depigmenting compounds.
# [3] = test system: pigmented reconstructed epidermis; experiment: Test on pigmented reconstructed epidermis samples, melanin quantified by image analysis; assay type: cell-based, human
# Procedure: Compositions comprising 300 µM of compound 1 in DMSO were applied to samples of pigmented reconstructed epidermis (cf. EP 1 878 790). The control is DMSO. The melanin was quantified by image analysis on histological slices after staining with Fontana Masson dye. Each sample of coloured epidermis is photographed over its entire length using a camera connected to a microscope. The melanin is thresholded and the number of melanin pixels is measured in each field using automated image analysis software. A non-parametric statistical test is performed in order to determine the significance of the measurements (Mann-Whitney test).
# The pigmented reconstructed epidermis standard study model was published by: Regnier M, Duval C, Galey JB, Philippe M, Lagrange A, Tuloup R, Schmidt R, Cellular and Molecular Biology, 1999, 45, 7, 969-980: "Keratinocyte-Melanocyte co-cultures and pigmented reconstructed human epidermis: models to study modulation of melanogenesis".
IC50 [2] [µM],SMILES,Cytotoxicity on coculture [1],"depigmenting activity ([3]; 300 µM, pValue < 0.05 (Ttest 0.0006 in table), Mann-Whitney test)","Percentage (normalized) ([3]; topical application 300 uM in DMSO, melanin area normalized to DMSO 1/1000 control = 100)","Average area ([3]; topical application 300 uM in DMSO, melanin pixels by image analysis after Fontana Masson staining, DMSO 1/1000 control 368.5)"
100,CCOC(=O)C(CC(C)C)NC(=O)C(CCO)Cc1ccc(O)cc1O (stereo not shown),Non-cytotoxic,–,–,–
25.2,CCCCC(CC)CNC(=O)C(CCO)Cc1ccc(O)cc1O (stereo not shown),50 µM,–,–,–

# The remaining lines, values behind:
SMILES,IC50 [2] [µM],Cytotoxicity on coculture [1],"depigmenting activity ([3]; 300 µM, pValue < 0.05 (Ttest 0.0006 in table), Mann-Whitney test)","Percentage (normalized) ([3]; topical application 300 uM in DMSO, melanin area normalized to DMSO 1/1000 control = 100)","Average area ([3]; topical application 300 uM in DMSO, melanin pixels by image analysis after Fontana Masson staining, DMSO 1/1000 control 368.5)"
"O=c1cc(CO)occ1O [Kojic acid, reference compound]",> 500,100 µM,–,–,–
"CCOC(=O)[C@H](Cc1ccccc1)NC(=O)C(CCO)Cc1ccc(O)cc1O (stereo partly shown) [Compound 1, ethyl N-[2-(2,4-dihydroxybenzyl)-4-hydroxybutanoyl]phenylalaninate]",–,–,Significant depigmenting activity,71.7,264.2
"OC[C@H]1O[C@@H](Oc2ccc(O)cc2)[C@H](O)[C@@H](O)[C@@H]1O [Arbutin, reference compound]",> 500,Non-cytotoxic,–,–,–
CCOC(=O)C(Cc1ccccc1)NC(=O)C(CCO)Cc1ccc(O)cc1O (stereo not shown),0.15,Non-cytotoxic,–,–,–

# From patent EP2861555B1, “PROCESS FOR DEPIGMENTING KERATIN MATERIALS USING NOVEL RESORCINOL-BASED COMPOUNDS” (L'Oréal, priority 2012, dated 2013)
